Data as given in patent US4868114A, “Method for elevating glutathione levels” (Regents of the University of Minnesota, priority 1989, dated 1989).

What was measured:
[1] = test system: rat hepatocytes; assay: Stimulation of glutathione (GSH) biosynthesis in isolated rat hepatocytes by L-cysteine prodrugs; assay type: cell-based; conditions: for [GSH] ± SE: control 35.4 ± 0.78
Experimental: (§1) Rat hepatocytes were isolated following the methods of P. O. Seglen, Exper. […] After final plating, the hepatocytes were maintained in culture for 24 hr prior to use. Only primary cultures were used throughout the studies. The hepatocytes were incubated with the cysteine prodrugs for a 4-hr period, and after removal of media by aspiration, the cells were rinsed with cold phosphate-buffered saline and deproteinized with 5% sulfosalicylic acid. […] For the inhibition studies with BSO, the cells were pre-exposed to BSO (0.20 mM) before treatment with the L-cysteine prodrugs.

[2] = test system: rat hepatocytes; assay: Inhibitory effect of buthionine sulfoximine (BSO) on GSH elevation elicited by L-cysteine prodrugs in rat hepatocytes; assay type: cell-based; conditions: for [GSH] ± SE: rat hepatocytes pre-exposed to BSO 0.2 mM, 4 hr; for [GSH] Rel. to Controls: rat hepatocytes, BSO 0.2 mM, 240 min
Experimental: as §1

[3] = test system: acetaminophen-induced hepatotoxicity; assay: Protection against acetaminophen-induced hepatotoxicity in mice; assay type: in vivo; conditions: prodrug 2.45 mmole/kg ip 30 min later; for Survival (48 hr) (%) / Survival (48 hr) (Number): LD90 acetaminophen 750 mg/kg ip; for Survival (48 hr) (Number): survivors/total; for Number of Animals with necrosis 0 / Number of Animals with necrosis 1+ / Number of Animals with necrosis 2+ / Number of Animals with necrosis 3+ / Number of Animals with necrosis 4+: LD90 acetaminophen ip, liver histology, Mitchell rating
Experimental: Compounds 1a through 1h were evaluated in a mouse model for their ability to protect against the hepatotoxic action of acetaminophen. The experimental protocol involved the administration of an LD90 dose of acetaminophen, followed 30 min. later by the prodrug as potential protective agent. Toxicity was assessed based on overall survival data at 48 hrs, as well as on histological criteria of hepatocellular damage using the rating system of J. R. Mitchell et al., J. Pharmacol. Exp. Ther., 187, 185 (1973).
The prodrugs of L-cysteine were examined for their ability to protect against acetaminophen-induced hepatotoxicity in mice essentially as described by H. T. Nagasawa et al., J. Med. Chem., 25, 489 (1982). Male Swiss-Webster mice (19 to 31 g) were fasted overnight but given free access to water. An LD90 dose of acetaminophen (750 mg/kg, 4.97 mmol/kg, ip) was then administered, followed 30 min later by a 2.45 mmole/kg ip dose of the L-cysteine prodrug. All injection solutions were freshly prepared in sterile water, except where solubility problems required the use of sterile 0.1N aqueous NaHCO3 or a slurry of the prodrug in 2% aqueous carboxymethylcellulose (CMC). The animals were then given food and water ad libitum and were observed over a 48-hr period.
Represenative sections from the central lobe of the liver were obtained from those animals found dead at 12, 24 and 48 hr. Survivors at 48 hr were sacrificed by cervical dislocation and the liver sections were similarly excised and sectioned. All specimens were fixed on 10% buffered formalin and in Form-a-Less (PMP, Inc., San Diego, CA) and stained with hematoxylin and eosin. The extent of hepatic necrosis was evaluated histologically by an investigator who had no knowledge of the experimental protocols or sample identity.

[4] = test system: heptatotoxic dosages of acetaminophen; conditions: previous studies (Nagasawa 1984; Meister US 4,335,210); cited from earlier work
[5] = Hepatocyte, rat hepatocytes, prodrug 1.0 mM, 4 hr incubation, read-out: [GSH] Rel. to Controls
[6] = rat hepatocytes, prodrug 1.0 mM, 4 hr incubation

| Compound | fold induction at 1000 µM [1, 5] | [GSH] ± SE [1, 6] | [GSH] ± SE ([2]; prodrug 1.0 mM) | [GSH] Rel. to Controls ([2]; prodrug 1.0 mM) | Survival (48 hr) (%) [3] | Survival (48 hr) (Number) [3] | Number of Animals with necrosis 0 [3] | Number of Animals with necrosis 1+ [3] | Number of Animals with necrosis 2+ [3] | Number of Animals with necrosis 3+ [3] | Number of Animals with necrosis 4+ [3] | protection of mice from hepatotoxic dosages of acetaminophen [4] | [GSH] Rel. to Controls [1, 6] | fold induction at 2500 µM ([1]; Rattus norvegicus, Hepatocyte, 4 h, read-out: [GSH] Rel. to Controls) | [GSH] ± SE ([1]; rat hepatocytes, 2.5 mM, 4 hr incubation) | raised GSH levels by ([1]; rat hepatocytes, 2.5 times the concentration of the thiazolidine prodrugs) | [GSH] ± SE ([2]; 2.5 mM) | [GSH] Rel. to Controls ([2]; 2.5 mM) |
| --- | --- | --- | --- | --- | --- | --- | --- | --- | --- | --- | --- | --- | --- | --- | --- | --- | --- | --- |
| O=C(O)[C@@H]1CSC([C@@H](O)[C@H](O)[C@H](O)CO)N1 (mixture of isomers) [AraCys, 2(R,S)-D-arabino-1',2',3',4'-Tetrahydroxybutylthiazolidine-4(R)-carboxylic Acid] | 1.2 | 42.9 ± 2.17 nmol/10^6 cells | 19.5 ± 3.75 nmol/10^6 cells | 0.6 | 40% | 4/10 | 0 | 1 | 2 | 0 | 7 | – | – | – | – | – | – | – |
| CC1N[C@H](C(=O)O)CS1 (stereo partly drawn) [2(R,S)-methylthiazolidine-4R-carboxylate] | – | – | – | – | – | – | – | – | – | – | – | can protect mice | – | – | – | – | – | – |
| CCCCCC1N[C@H](C(=O)O)CS1 (stereo partly drawn) [2(R,S)-n-pentyl] | – | – | – | – | – | – | – | – | – | – | – | can protect mice | – | – | – | – | – | – |
| CCCC1N[C@H](C(=O)O)CS1 (stereo partly drawn) [2(R,S)-n-propyl-] | – | – | – | – | – | – | – | – | – | – | – | can protect mice | – | – | – | – | – | – |
| O=C(O)[C@@H]1CSC([C@H](O)[C@@H](O)[C@@H](O)[C@H](O)CO)N1 (stereo partly drawn) [GalCys, 2(R,S)-D-galacto-1',2',3',4',5'-Pentahydroxypentylthiazolidine-4(R)-carboxylic Acid] | 1.6 | 58.0 ± 2.00 nmol/10^6 cells | 23.2 ± 2.56 nmol/10^6 cells | 0.7 | 60% | 6/10 | 1 | 3 | 2 | 0 | 4 | – | – | – | – | – | – | – |
| O=C(O)[C@@H]1CSC([C@H](O)[C@@H](O)[C@H](O)[C@H](O)CO)N1 (stereo partly drawn) [GlcCys, 2(R,S)-D-gluco-1',2',3',4',5'-Pentahydroxypentylthiazolidine-4(R)-carboxylic Acid] | 2.1 | 75.2 ± 2.15 nmol/10^6 cells | 25.4 ± 0.99 nmol/10^6 cells | 0.7 | 30% | 3/10 | 0 | 2 | 0 | 1 | 7 | – | over twice | – | – | – | – | – |
| O=C(O)[C@@H]1CSC([C@H](O)CO)N1 (stereo partly drawn) [GlycCys, 2(R,S)-D-glycero-1',2'-Dihydroxyethylthiazolidine-4(R)carboxylic Acid] | 1.3 | 46.1 ± 1.10 nmol/10^6 cells | 18.3 ± 6.41 nmol/10^6 cells | 0.5 | 30% | 3/10 | 0 | 0 | 1 | 2 | 7 | – | – | – | – | – | – | – |
| O=C1N[C@H](C(=O)O)CS1 [L-2-oxothiazolidine-4-carboxylate] | – | – | – | – | – | – | – | – | – | – | – | can protect mice | – | – | – | – | – | – |
| O=C(O)[C@@H]1CSC([C@@H](O)[C@@H](O)[C@H](O)CO)N1 (stereo partly drawn) [LyxCys, 2(R,S)-D-lyxo-1',2',3',4'-Tetrahydroxybutylthiazolidine-4(R)-carboxylic Acid] | 1.3 | 45.9 ± 1.95 nmol/10^6 cells | 22.4 ± 1.98 nmol/10^6 cells | 0.6 | 30% | 3/10 | 0 | 0 | 0 | 1 | 9 | – | – | – | – | – | – | – |
| O=C(O)[C@@H]1CSC([C@@H](O)[C@@H](O)[C@H](O)[C@H](O)CO)N1 (stereo partly drawn) [ManCys, 2(R,S)-D-manno-1',2',3',4',5'-Pentahydroxypentylthiazolidine-4(R)-carboxylic Acid] | 1.6 | 57.8 ± 0.87 nmol/10^6 cells | 18.9 ± 1.87 nmol/10^6 cells | 0.5 | 40% | 4/10 | 3 | 0 | 1 | 0 | 6 | – | – | – | – | – | – | – |
| CC(=O)N[C@@H](CS)C(=O)O [NAC, N-Acetyl-L-cysteine, reference compound] | – | – | – | – | 94% | 17/18 | 13 | 3 | 0 | 1 | 1 | can protect mice | – | 1.3 | 45.8 ± 1.27 nmol/10^6 cells | 30% | 25.5 ± 1.59 nmol/10^6 cells | 0.7 |
| O=C(O)[C@@H]1CSC([C@H](O)[C@H](O)[C@H](O)CO)N1 (stereo partly drawn) [RibCys, 2(R,S)-D-ribo-1',2',3',4'-Tetrahydroxybutylthiazolidine-4(R)-carboxylic Acid] | 1.7 | 61.2 ± 1.52 nmol/10^6 cells | 16.2 ± 3.60 nmol/10^6 cells | 0.5 | 100% | 12/12 | 4 | 2 | 6 | 0 | 0 | – | – | – | – | – | – | – |
| O=C(O)[C@@H]1CSC([C@H](O)[C@@H](O)[C@H](O)CO)N1 (stereo partly drawn) [XylCys, 2(R,S)-D-xylo-1',2',3',4'-Tetrahydroxybutylthiazolidine-4(R)-carboxylic Acid] | 1.6 | 58.3 ± 0.99 nmol/10^6 cells | 22.6 ± 1.84 nmol/10^6 cells | 0.8 | 60% | 6/10 | 3 | 2 | 0 | 0 | 5 | – | – | – | – | – | – | – |
